We go through three substances from patent US20020037327A1, “Treatment for cancer and compounds for use therein” (priority 1997, published 2002).

Like-named read-outs stand apart in the source and are kept apart here.

The subject of data set [1] is HUV-EC-C human umbilical cord vein normal endothelial cells. The data set is described as follows: In vitro percent cell survival, crystal violet assay, normal endothelial cells (control). The class given is cell-based. The settings on record: 48 hours. The method, then: (§1) Three compounds of the present invention, specifically, bismuth iodiscorbate, potassium iodiscorbate, and zinc iodiscorbate, were tested in vitro on both tumorous and normal human cells. Three cell lines were obtained through the American Type Culture Collection (Rockville, Maryland). The first cell line, designated HUV-EC-C, consisted of human umbilical cord vein normal endothelial cells. These noncancerous cells were used as a control. The second cell line, MCF-7, consisted of breast carcinoma cells. The third cell line, ME-180, consisted of uterine cervix carcinoma cells.
(§2) The data shown in FIGS. 5-7 were derived by the following steps. HUV-EC-C was cultured in a solution of 90% F12 medium (GIBCO-BRL, Grand Island, N.Y.) and 10% fetal bovine serum (Hyclone, Logan, Utah) with 100 μg/ml heparin and 30 μg/ml ECGF (endothelial cell growth factor; Sigma Chemical Co., St. Louis, Mo.). MCF-7 and ME-180 were grown in a solution of 90% minimal essential medium (GIBCO-BRL) and 10% fetal bovine serum (Hyclone). The cells were grown to approximately 90% confluence in T25 cell culture flasks (Falcon-Becton Dickinson Labware, Franklin Lakes, N.J.) in a 37° C. humidified incubator in the presence of 5% C02−95% air.
Flasks were removed from the incubator and placed in a sterile laminar flow hood. […] The cell density in the hemacytometer was determined by counting cells visible by microscopy. […]

Data set [2] deals with ME-180 uterine cervix carcinoma cells. The data set is described as follows: In vitro percent cell survival, crystal violet assay, uterine cervix carcinoma cells. The settings on record: 48 hours; for survival of human cervical carcinoma cells (ME-180): concentration not given. The class given is cell-based, human. The method, then: as §1, §2
(§3) Flasks were removed from the incubator and placed in a sterile laminar flow hood. All cell manipulation procedures were performed in this sterile hood. The flasks were rinsed in 5 ml of sterile phosphate-buffered saline (PBS; Sigma) and the monolayer of cells was released from the flask by adding 5 ml of 1X trypsin-EDTA (Sigma) in PBS. The flask was capped and placed back in the incubator for 10 minutes. The flasks were removed from the incubator, and cells plus trypsin-EDTA solution were transferred to a 15 ml centrifuge tube (Falcon) and 5 ml of cell growth medium was added. The tubes were centrifuged at 500 g for 10 minutes at room temperature. The tubes then were placed back in the hood and supernatant (top liquid) was removed with a sterile pipette (Falcon). […] The cell density in the hemacytometer was determined by counting cells visible by microscopy. […]

Data set [3] concerns MCF-7 breast carcinoma cells. The data set is described as follows: In vitro percent cell survival, crystal violet assay, breast carcinoma cells. Particulars: 48 hours. The class given is cell-based, human. The method, then: as §1, §2, §3
A short description of data set [4]: Water solubility of the prepared compound. In kind it is physicochemical. Here is the method: Bismuth iodiscorbate was prepared by dissolving 58 g of concentrated hydriodic acid (56.1 weight-percent) into 350 mls of water. Next, 5 g of 0.0085 molar bismuth (III) iodide was crushed in a mortar, and then dissolved in the solution. Next, 2.3 g of 0.0085 molar strontium hydroxide octahydrate was stirred into the solution, followed by the addition of 4.5 g of 0.026 molar L-ascorbic acid. The mixture was stirred for three hours, then stripped to dryness on a rotary evaporator. The residue then was redissolved in 500 ml water and filtered, and again stripped on a rotary evaporator. This process assisted in the removal of excess hydriodic acid. The residue again was dissolved in 500 ml of water, filtered, and stripped to dryness on a rotary evaporator. An orange solid then was removed from the flask and bottled. This procedure yielded 9.1 g of what is designated as SrBiI2[ascorbate]3. This compound was water soluble.
Potassium iodiscorbate was prepared by adding 6.5 g of 0.12 molar potassium hydroxide and 16.0 g of 0.06 molar strontium hydroxide octahydrate to 500 ml water in a 1000-ml beaker, resulting in a white, cloudy solution. The mixture was stirred for about 2 hours. Next, 13.0 g of 0.06 molar hydriodic acid (56 weight-percent) was added, and the mixture was stirred for three hours. Next, […] of 0.18 molar L-ascorbic acid was added, turning the mixture clear in about 5 minutes. The mixture then was stirred for another 0.5 hour. The water was removed under vacuo, and the residue dried under vacuum for about 8 hours. The solids were removed from the flask and bottles. The structure is designated as [ascorbate]2SrK[ascorbate]KI. This compound also was water soluble.
Zinc iodiscorbate was prepared by adding 4.0 g of 0.05 molar zinc oxide and 13.3 g of 0.05 molar strontium hydroxide octahydrate to 500 ml of distilled water, resulting in a white suspension. The mixture then was treated with 11.2 g of 0.05 molar concentrated hydriodic acid and stirred for two hours. A white suspension still remained. […]

Data set [5] concerns cells at high density (near confluence in culture dishes). The data set is described as follows: Treatment of cells at high density (near confluence). The class given is cell-based, human. The settings on record: 400 μg/ml. The text has this:
FIG. 5 depicts percent cell survival against various concentrations of potassium iodiscorbate.

A further data set concerns mice. The data set is described as follows: In vivo toxicology study in mice. Here is the method:
A toxicology study also was performed. Specifically, the toxicology of potassium iodiscorbate was evaluated through in vivo tests on mice. Potassium iodiscorbate was prepared as a stock solution of 175 mg/ml in saline and administered to mice. Injections consisted of a volume not exceeding 0.1 ml administered through the tail vein (intravenously), or a volume not exceeding 0.2 ml (by an intraperitoneal route). Doses up to 1000 mg/kg (intraperitoneal injection) and 500 mg/kg (intravenous injection) caused no apparent toxicity. This dose should permit use of the compounds of the present invention in concentrations (refer to FIGS. 5-7) that approximate those necessary for selective inhibition of malignant cell growth.

Consider Zinc iodiscorbate, for which the “normal cell growth (HUV-EC-C)” value in data set [1] (about 80-100 μg/ml) is listed as “without serious reduction of normal cell growth”. Further, the “survival of cervical carcinoma cells (ME-180) with respect to normal cell growth” value in data set [2] (about 80-100 μg/ml) is “reduced dramatically”. The “survival of breast carcinoma cells (MCF-7) with respect to normal cell growth” value in data set [3] (about 80-100 μg/ml) is on record as “reduced dramatically”. Further, the solubility in water entry in data set [4] (product as prepared) is on record as “water soluble”.

Regarding Bismuth iodiscorbate, the “survival of human cervical carcinoma cells (ME-180)” value in data set [2] was “effective in reducing the survival”. For the same substance, the “survival of human breast cancer cells (MCF-7)” value in data set [3] (concentration not given) is listed as “effective in reducing the survival”. Moreover, the solubility in water entry in data set [4] is “water soluble”.

As to Potassium iodiscorbate, the “effect on cells at high density” value in data set [5] is recorded as “little effect”. For the same substance, the “growth of normal human endothelial cells (HUV-EC-C)” value in data set [1] (any concentration tested) is listed as “did not affect the growth”. For the same substance, the “survival of human cervical carcinoma cells (ME-180)” value in data set [2] is “reduced dramatically the survival”. In data set [3] (concentrations greater than 100 μg/ml), the “survival of breast carcinoma cells (MCF-7)” value is reported as “reducing dramatically the survival”. For the same substance, the solubility in water entry in data set [4] (product as prepared) was “water soluble”. The entries for the “doses that caused no apparent toxicity” value in the data set with mice (intraperitoneal injection) and in the data set on mice (intravenous injection (tail vein)) were “up to 1000 mg/kg” and at most 500 mg/kg, respectively.
